What was measured:
[1] = target: T1, mGPR40 (Mus musculus, UniProt Q76JU9); assay: Mouse beta-arrestin agonist assay with 1% FBS (PathHunter, U2OS mFFAR1); type: cell-based
T1 construct: host or cells: U2OS
Text: Human embryonic kidney (hEK293)-hFFAR1 cells are purchased from DiscoveRx. Human osteosarcoma (U2OS) cells expressing mFFAR1 are developed by DiscoveRX. These cells co-express the Prolink (PK)-tagged GPR40 and the Enzyme Acceptor (EA)-tagged beta-arrestin fusion proteins. If activation of the GPR40 stimulates beta-arrestin recruitment, it would force complementation of the beta galactosidase (B-gal) enzyme fragments, forming a B-gal enzyme that generates a chemiluminescent signal using the DiscoveRx PathHunter detection kit. Cells are incubated overnight at 5,000 cells/well in 384 well plates in culture media containing 1% FBS (fetal bovine serum). Serial diluted compounds in DMSO (2× dilutions to generate 20 concentrations) are step down diluted in culture media containing 1% FBS (fetal bovine serum) and added to cells with a final top concentration starting of 100 μM. After addition of compounds, cells are incubated for 90 min at 37° C. in 5% CO2 incubator, and DiscoveRX kit detection reagents are added. Measurement of the chemiluminescent signal is ascertained with the Envision reader, after a 1-hour incubation at room temperature. Data are fit to a 4 parameter-fit logistics to determine EC50 values; % activity is measured versus maximum response to TAK875 at 1 μM.

[2] = target: T2, PPARδ (Homo sapiens, UniProt Q03181); assay: Gal4 PPARδ reporter (CTF) functional assay in CV1 cells; type: cell-based; settings: examined up to 10 M; versus 10 μM PPAR agonist reference compound
T2 construct: expressed in transfected cells; host or cells: CV1 (African green monkey kidney)
T2 sequence (Q03181 211-439 limits assumed): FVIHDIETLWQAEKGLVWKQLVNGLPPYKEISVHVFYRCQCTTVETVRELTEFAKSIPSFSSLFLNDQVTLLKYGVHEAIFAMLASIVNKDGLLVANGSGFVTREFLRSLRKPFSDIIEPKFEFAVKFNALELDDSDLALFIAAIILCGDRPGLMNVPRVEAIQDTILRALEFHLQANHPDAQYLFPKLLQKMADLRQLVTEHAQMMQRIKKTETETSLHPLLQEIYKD
Procedure: Because GPR40 is known to be activated by ligands to PPARγ, exemplified compounds are examined in Gal4 PPARα, Gal4 PPARδ, and PPARγ reporter assays to determine the selectivity of exemplified compounds for PPAR receptors. CV1 cells, which are derived from the renal tissue of an African green monkey, are transfected with various receptor and reporter plasmids using Fugene. […] After 24 hours incubation with compounds, cells are lysed and luciferase activity is determined as a measure of receptor activation by luminescence. […] The maximum percent stimulation is determined versus maximum stimulation obtained with 10 μM of an appropriate PPAR agonist reference compound, 2-methyl-2-(4-{2-methyl-3-[2-(phenylcarbonyl)-4-(trifluoromethoxy)phenoxy]propoxy}phenoxy)propanoic acid. […] Efficacy was negative for PPARα, PPARδ, and PPARγ is detected with the compound of Example 1 when examined up to […] in the specific PPAR co-transfection (CTF) functional assays described above. […]

[3] = target: hGPR40 (Homo sapiens, UniProt O14842); assay: Calcium Flux Primary Assay (FLIPR, Calcium 4 Dye); type: cell-based; parameters: expressed in transfected cells; host or cells: HEK293; settings: HEK293 cells over expressing human GPR40; Mean±SEM
Procedure: HEK293 cells over expressing the human GPR40 cDNA maintained in Dulbecco's modified Eagle's medium with F12 medium in 3:1 ratio supplemented with 10% FBS and 800 μg/ml geneticin at 37° C. and 5% CO2 are employed for the study. Agonist assays are performed using a Calcium 4 Dye assay kit (Molecular Devices) in the presence or absence of 0.1% fatty acid free BSA in the assay buffer (1×HBSS (Hank's Balanced Salt Solution) & 20 mM HEPES (4-(2-hydroxyethyl)-1-piperazineethanesulfonic acid). Receptor activation is measured as an increase in intracellular calcium using the Fluorometric Imaging Plate Reader (FLIPR). Maximum change in fluorescence over the base line is used to determine the agonist response. The EC50 value of the compound is calculated using Excel Fit software (version 4; IDBS) by plotting concentration vs relative fluorescence units (RFUs).

[4] = tested on: Zucker fa/fa rats; assay: Acute oral glucose tolerance test (OGTT); type: in vivo, rat
Procedure: OGTTs are performed in Zucker fa/fa rats, a rodent model of insulin resistance, after 1 and 21 days of orally administered material at 1.0, 3.0 and 10 mg/kg. TAK875 at 1 mg/kg served as the positive control. The OGTTs are performed one hour post compound administration with blood samples taken for determination of glucose and insulin levels at 10, 20, 40, 60, and 120 minutes post glucose administration.

T1 sequence (Q76JU9 whole entry): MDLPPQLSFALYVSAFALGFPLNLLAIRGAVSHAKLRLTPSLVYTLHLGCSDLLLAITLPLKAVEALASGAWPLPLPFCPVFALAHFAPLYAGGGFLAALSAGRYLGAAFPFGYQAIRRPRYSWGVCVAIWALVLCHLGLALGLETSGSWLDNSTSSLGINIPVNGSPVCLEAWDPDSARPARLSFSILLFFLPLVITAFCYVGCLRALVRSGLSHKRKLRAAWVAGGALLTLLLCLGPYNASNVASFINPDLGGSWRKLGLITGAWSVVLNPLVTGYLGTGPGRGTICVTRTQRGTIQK
T1 sequence (P32121 whole entry partner): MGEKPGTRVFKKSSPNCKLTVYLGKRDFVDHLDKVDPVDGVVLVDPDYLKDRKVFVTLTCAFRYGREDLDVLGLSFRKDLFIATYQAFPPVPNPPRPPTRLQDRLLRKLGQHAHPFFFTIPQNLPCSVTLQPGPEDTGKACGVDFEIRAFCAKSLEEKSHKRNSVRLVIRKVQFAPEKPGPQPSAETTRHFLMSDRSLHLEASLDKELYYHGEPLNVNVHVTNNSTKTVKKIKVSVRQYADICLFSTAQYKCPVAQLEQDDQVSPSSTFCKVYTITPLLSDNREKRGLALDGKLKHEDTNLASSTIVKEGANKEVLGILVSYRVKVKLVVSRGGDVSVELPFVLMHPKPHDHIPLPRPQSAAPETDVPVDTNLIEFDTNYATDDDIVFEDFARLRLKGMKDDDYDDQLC
hGPR40, sequence (O14842 whole entry): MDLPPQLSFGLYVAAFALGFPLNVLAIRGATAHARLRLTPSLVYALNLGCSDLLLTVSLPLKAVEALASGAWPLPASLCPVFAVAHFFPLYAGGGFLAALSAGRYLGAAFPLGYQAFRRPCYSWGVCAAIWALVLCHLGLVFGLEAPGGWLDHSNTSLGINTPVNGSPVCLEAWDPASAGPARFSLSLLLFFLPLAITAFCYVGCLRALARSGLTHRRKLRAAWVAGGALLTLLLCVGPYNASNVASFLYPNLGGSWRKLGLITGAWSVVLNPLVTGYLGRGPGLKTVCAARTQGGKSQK

- EC50 ([1]; 1% FBS, 90 min, read-out: mGPR40 b-arrestin EC50): 4.02 nM
- mGPR40 b-arrestin % stimulation max (FA) ([1]; versus maximum response to TAK875 at 1 μM): 160%
- EC50 [3]: 146 nM
SMILES: CC#C[C@@H](CC(=O)O)c1ccc(OCc2cc(-c3ccccc3C)cn3ncnc23)cc1 [Example 1, (S)-3-[4-(6-o-Tolyl-[1,2,4]triazolo[1,5-a]pyridin-8-ylmethoxy)-phenyl]-hex-4-ynoic acid]
- Efficacy for PPARδ [2]: negative (Efficacy of <20% is considered negative)
- ED90 for glucose lowering ([4]; oral): 3.3 mg/kg
- Insulin AUCs during the OGTTs ([4]; oral 1, 3, 10 mg/kg, values not statistically significant): dose dependent elevation
- AUCs for glucose lowering ([4]; oral, Example 1 at 1, 3 and 10 mg/kg, TAK875 at 1 mg/kg, p<0.05): statistically significant
